Series [1] is described as follows: Toxicity in nude mouse implanted with human MHCC97H cells assessed as heart damage at 5 to 10 mg/kg, po administered daily for 3 weeks by H and E staining based analysis. The format is organism-based. To be noted: in vivo, 504 h, dose 5-10 mg/kg.
The subject of another series is HCCLM3. Description: Cytotoxicity against human HCCLM3 cells assessed as inhibition of cell proliferation incubated for 48 hrs by MTT assay. The format is functional, cell-based. Conditions: HCCLM3, 48 h. In general terms: Tetrazolium assays rely on reduction of a dye to a coloured formazan, in cell work by metabolically active cells.
Series [2] can be described thus: Toxicity in nude mouse implanted with human MHCC97H cells assessed as lung damage at 5 to 10 mg/kg, po administered daily for 3 weeks by H and E staining based analysis. The format is organism-based. Conditions: in vivo, 504 h, dose 5-10 mg/kg.
For a further series, the system named is Huh-7. As to the kind of experiment: Cytotoxicity against human Huh-7 cells assessed as inhibition of cell proliferation incubated for 48 hrs by MTT assay. To be noted: Huh-7, 48 h. The format is functional, cell-based.
Another series relates to HepG2. Description: Cytotoxicity against human HepG2 cells assessed as inhibition of cell proliferation incubated for 48 hrs by MTT assay. The format is functional, cell-based. To be noted: HepG2, 48 h.
Series [3] in a line: Toxicity in nude mouse implanted with human MHCC97H cells assessed as body weight at 10 mg/kg, po administered daily for 3 weeks and measured immediately (reference value: 25.05 g). To be noted: in vivo, 504 h. In kind it is organism-based.
Series [4] in a line: Toxicity in nude mouse implanted with human MHCC97H cells assessed as body weight at 5 mg/kg, po administered daily for 3 weeks and measured immediately (reference value: 25.05 g). In kind it is organism-based. To be noted: in vivo, 504 h.
Series [5] is described as follows: Toxicity in nude mouse implanted with human MHCC97H cells assessed as kidney damage at 5 to 10 mg/kg, po administered daily for 3 weeks by H and E staining based analysis. In kind it is organism-based. To be noted: in vivo, 504 h, dose 5-10 mg/kg.
Series [6] can be described thus: Toxicity in nude mouse implanted with human MHCC97H cells assessed as body weight at 10 mg/kg, po administered daily for 3 weeks and measured at day 22 (reference value: 26.38 g). Conditions: in vivo, 1032 h, time 43 day. In kind it is organism-based.
The subject of the next series is MHCC97H. As to the kind of experiment: Cytotoxicity against human MHCC97H cells assessed as inhibition of cell proliferation incubated for 48 hrs by MTT assay. In kind it is functional, cell-based.
Series [7] in a line: Toxicity in nude mouse implanted with human MHCC97H cells assessed as spleen damage at 5 to 10 mg/kg, po administered daily for 3 weeks by H and E staining based analysis. The format is organism-based. Conditions: in vivo, 504 h, dose 5-10 mg/kg.
The nature of series [8]: Toxicity in nude mouse implanted with human MHCC97H cells assessed as body weight at 5 mg/kg, po administered daily for 3 weeks and measured at day 22 (reference value: 26.38 g). The format is organism-based. To be noted: in vivo, 1032 h, time 43 day.
The nature of series [9]: Toxicity in nude mouse implanted with human MHCC97H cells assessed as liver damage at 5 to 10 mg/kg, po administered daily for 3 weeks by H and E staining based analysis. The format is organism-based. To be noted: in vivo, 504 h, dose 5-10 mg/kg.

With `CC[C@H](C)[C@@H]1NC(=O)[C@@H]2CCCN2C(=O)[C@H](CC(C)C)NC(=O)[C@H](COC(C)(C)C)NC(=O)[C@H](CC(C)C)NC(=O)[C@H](C(C)C)NC(=O)[C@H](CC(C)C)NC(=O)[C@H](CC(C)C)NC(=O)[C@H](CC(C)C)NC1=O`, the Activity entry is “Non-toxic” in [1]; “Non-toxic” in series [2]; 25.6 g in series [3]; 25.98 g in [4]; “Non-toxic” in [5]; 26.43 g in series [6]. For the same compound, the Activity entry in [7] was “Non-toxic”; in [8] it was 26.7 g; in series [9], “Non-toxic”. Moreover, the IC50 with HCCLM3 came to 4.6 µM; in the series on Huh-7 it was 3.29 µM; in the series with HepG2, 3.29 µM; in the series with MHCC97H it was 4.1 µM.

As a reminder, the IC50 is the midpoint of a concentration-inhibition curve.

Source of the values: ChEMBL document CHEMBL6109101, “Synthesis and bioactivity of cyclic peptide GG-8-6 analogues as anti-hepatocellular carcinoma agents” (Eur J Med Chem, 2025).
